The text below walks through data of patent US12522582B2 (Gilead Sciences, Inc., priority 2022, dated 2026).

In this experiment the test system is HSV-2 virus (MS strain). The experiment in a line: HSV-2 Cellomics Assay (immunofluorescence of HSV protein gD in infected ARPE-19 cells). The conditions noted are these: Human alphaherpesvirus 2, ARPE-19, 16 h.
Setting [1] is: read-out: EC50-HSV2-10% Human Serum.

Where two headings read alike, the source gives them in different places.

Protocol: Compounds were tested for their ability to inhibit HSV-2 replication by monitoring the expression of the HSV protein gD using a high-throughput immunofluorescence-based assay. 10-dose, 3-fold serial dilutions of compounds were prepared at starting concentrations of 0.2 or 2 mM in 100% DMSO. […] The final starting concentration in the assay was either 1 or 10 μM. DMSO (no compound) and pritelivir were included on each microplate as negative and positive controls, respectively.
Prior to confluence, cells were transferred to a centrifuge tube and spun for 5 minutes at 1000 rpm. Cells were resuspended in assay medium (DMEM/F-12 Glutamax, 2% FBS, 1% Penicillin-Streptomycin) and counted. Cell density was adjusted to 150,000 cells/ml and infected with HSV-2 virus (MS strain, ATCC cat #VR-540) at a MOI of 0.06 in a 50 ml conical tube for 1 hour under constant rocking. Cells were then spun for 5 minutes at 1000 rpm and the media replaced with assay medium containing either 2% FBS or 10% human serum (EMD Millipore cat #S1-100 ML). 50 μl of the infection suspension were added into microplate wells that were pre-spotted with compounds (7,500 cells per well). Plates were incubated for 16 hours at 37° C.
After a 30-minute incubation at room temperature, plates were washed 4 times with 100 μl/well of PBS using a Biotek plate washer. […] Plates were washed 4 times again and 50 μl of DPBS were added to all wells prior to sealing the plates with a black adhesive seal. Fluorescence was measured on a Cellomics plate reader.
Data analysis was carried out using the Thermo Scientific HCS Studio software. Briefly, cells were identified using the DAPI nuclear stain and thresholds were set to filter cells out based on shape and size. A second threshold based on green fluorescence intensity (detection of HSV-2 gD) was set to identify HSV-2 infected cells. Data was reported as the average fluorescence intensity of HSV-2 infected cells.

In general, EC50 refers to the concentration needed to bring the measured effect to its halfway point. In the case of `NS(=O)(=O)c1ccc2c(c1)N(C(=O)C1Cc3ccc(-c4ccsn4)cc3C1)CC2` (stereo not shown) [Example 24], the EC50 is, setting by setting: under setting [1], not below 25000 nM; (read-out: EC50-HSV2-FBS) 19 nM.

Consider `Cc1nc(-c2ccc3c(c2)CC(C(=O)N2CCc4ccc(S(N)(=O)=O)cc42)C3)cs1` (stereo not shown) [Example 25], for which the EC50 was not below 25000 nM under setting [1] and 32 nM (read-out: EC50-HSV2-FBS).

On to `COc1nc(-c2ccc3c(c2)CC(C(=O)N2CCc4ccc(S(N)(=O)=O)cc42)C3)cs1` (stereo not shown) [Example 26], for which the EC50 (read-out: EC50-HSV2-FBS) was 131 nM.

`N#Cc1nc(-c2ccc3c(c2)CC(C(=O)N2CCc4ccc(S(N)(=O)=O)cc42)C3)cs1` (stereo not shown) [Example 27]: for the setting “read-out: EC50-HSV2-FBS”, the EC50 was 383 nM.

As for `CS(=N)(=O)c1ccc2c(c1)N(C(=O)C1Cc3ccc(-c4ccccn4)cc3C1)CC2` (stereo not shown) [Example 29, imino(methyl)(1-(5-(pyridin-2-yl)-2,3-dihydro-1H-indene-2-carbonyl)indolin-6-yl)-λ^6-sulfanone], the EC50 was 3240 nM under setting [1] and 193 nM (read-out: EC50-HSV2-FBS).

For `C[S@@](=N)(=O)c1cc2c(cc1F)CCN2C(=O)[C@@H]1Cc2ccc(-c3ccccn3)cc2C1` [Example 40, (R)-(5-fluoro-1-((R)-5-(pyridin-2-yl)-2,3-dihydro-1H-indene-2-carbonyl)indolin-6-yl)(imino)(methyl)-16-sulfanone], the EC50 by setting is: under setting [1], 816 nM; (read-out: EC50-HSV2-FBS) 196 nM.

In the case of `C[C@@H]1Cc2cc(F)c(S(N)(=O)=O)cc2N1C(=O)[C@@H]1Cc2cc(-c3ccccn3)ccc2O1` [Example 43], the EC50 runs as follows: under setting [1], 9270 nM; (read-out: EC50-HSV2-FBS) 352 nM.

As for `NS(=O)(=O)c1ccc2c(c1)N(C(=O)[C@@H]1Cc3ccc(-c4cc(F)ccc4F)cc3C1)CC2` [Example 45, (R)-1-(5-(2,5-difluorophenyl)-2,3-dihydro-1H-indene-2-carbonyl)indoline-6-sulfonamide], the 50% effective concentration (EC50) by setting is: under setting [1], not below 10000 nM; (read-out: EC50-HSV2-FBS) 67 nM.

With `C[C@@H]1c2cc(F)c(S(N)(=O)=O)cc2N(C(=O)[C@@H]2Cc3ccc(-c4ccccn4)cc3C2)[C@H]1C` [Example 47, (2S,3R)-5-fluoro-2,3-dimethyl-1-((R)-5-(pyridin-2-yl)-2,3-dihydro-1H-indene-2-carbonyl)indoline-6-sulfonamide], the EC50 runs as follows: under setting [1], 3660 nM; (read-out: EC50-HSV2-FBS) 423 nM.

On to `C[C@H]1c2cc(F)c(S(N)(=O)=O)cc2N(C(=O)[C@@H]2Cc3ccc(-c4ccccn4)cc3C2)[C@H]1C` [Example 49, (2S,3S)-5-fluoro-2,3-dimethyl-1-((R)-5-(pyridin-2-yl)-2,3-dihydro-1H-indene-2-carbonyl)indoline-6-sulfonamide], for which the EC50 under setting [1] is 1040 nM and the 50% effective concentration (EC50) (read-out: EC50-HSV2-FBS) was 162 nM.

In the case of `CS(=N)(=O)c1cc2c(cc1F)CCN2C(=O)[C@@H]1Cc2ccc(-c3cc(F)ccc3F)cc2C1` (stereo partly drawn) [Example 51, (1-((R)-5-(2,5-difluorophenyl)-2,3-dihydro-1H-indene-2-carbonyl)-5-fluoroindolin-6-yl)(imino)(methyl)-λ^6-sulfanone], the EC50 under setting [1] is 239 nM and the EC50 (read-out: EC50-HSV2-FBS) is 53 nM.

With `C[S@@](=N)(=O)c1cc2c(cc1F)CCN2C(=O)[C@@H]1Cc2ccc(-c3cc(F)ccc3F)cc2C1` [Example 52], the EC50 is, setting by setting: under setting [1], 2000 nM; (read-out: EC50-HSV2-FBS) 340 nM.

Regarding `C[C@H]1Cc2ccc(S(N)(=O)=O)cc2N1C(=O)C1Cc2cc(-c3ccccn3)ccc2O1` (stereo partly shown) [Example 56], the EC50 runs as follows: under setting [1], 2220 nM; (read-out: EC50-HSV2-FBS) 255 nM.

`C[C@H]1Cc2cc(Cl)c(S(N)(=O)=O)cc2N1C(=O)[C@@H]1Cc2ccc(-c3ccccn3)cc2C1` [Example 59, (S)-5-chloro-2-methyl-1-((R)-5-(pyridin-2-yl)-2,3-dihydro-1H-indene-2-carbonyl)indoline-6-sulfonamide]: the concentration giving a half-maximal response (EC50) under setting [1] is not below 10000 nM and the EC50 (read-out: EC50-HSV2-FBS) worked out at 385 nM.

For `NS(=O)(=O)c1ccc2c(c1)N(C(=O)C1Cc3ccc(-c4ccccc4)cc3C1)CC2` (stereo not shown) [Example 69, 1-(5-phenyl-2,3-dihydro-1H-indene-2-carbonyl) indoline-6-sulfonamide], the EC50 under setting [1] was not below 25000 nM and the EC50 (read-out: EC50-HSV2-FBS) is 119 nM.

In the case of `NS(=O)(=O)c1ccc2c(c1)N(C(=O)C1Cc3ccc(-c4ccccn4)cc3C1)CC2` (stereo not shown) [Example 71, 1-(5-(pyridin-2-yl)-2,3-dihydro-1H-indene-2-carbonyl) indoline-6-sulfonamide], the EC50 under setting [1] is not below 25000 nM and the EC50 (read-out: EC50-HSV2-FBS) is 30 nM.

Regarding `COc1cncc(-c2ccc3c(c2)CC(C(=O)N2CCc4ccc(S(N)(=O)=O)cc42)C3)n1` (stereo not shown) [Example 72], the EC50 reads like this: under setting [1], 12300 nM; (read-out: EC50-HSV2-FBS) 252 nM.

With `COc1cccc(-c2ccc3c(c2)CC(C(=O)N2CCc4ccc(S(N)(=O)=O)cc42)C3)n1` (stereo not shown) [Example 77], the 50% effective concentration (EC50) reads like this: under setting [1], 10500 nM; (read-out: EC50-HSV2-FBS) 121 nM.

On to `NS(=O)(=O)c1ccc2c(c1)N(C(=O)C1Cc3ccc(-n4cncn4)cc3C1)CC2` (stereo not shown) [Example 79, 1-(5-(1H-1,2,4-triazol-1-yl)-2,3-dihydro-1H-indene-2-carbonyl)indoline-6-sulfonamide], for which the EC50 (read-out: EC50-HSV2-FBS) was 2060 nM.

With `NS(=O)(=O)c1ccc2c(c1)N(C(=O)[C@H]1Cc3ccc(-c4ccccn4)cc3C1)CC2` [Example 80, (S)-1-(5-(pyridin-2-yl)-2,3-dihydro-1H-indene-2-carbonyl)indoline-6-sulfonamide], the concentration giving a half-maximal response (EC50) (read-out: EC50-HSV2-FBS) was determined as 409 nM.

As to `NS(=O)(=O)c1ccc2c(c1)N(C(=O)[C@H]1Cc3ccc(-c4ccccc4F)cc3C1)CC2` [Example 82, (S)-1-(5-(2-fluorophenyl)-2,3-dihydro-1H-indene-2-carbonyl)indoline-6-sulfonamide], the EC50 (read-out: EC50-HSV2-FBS) was determined as 8040 nM.

On to `NS(=O)(=O)c1ccc2c(c1)N(C(=O)[C@@H]1Cc3ccc(-c4ccccc4F)cc3C1)CC2` [Example 83, (R)-1-(5-(2-fluorophenyl)-2,3-dihydro-1H-indene-2-carbonyl)indoline-6-sulfonamide], for which the 50% effective concentration (EC50) reads like this: under setting [1], not below 25000 nM; (read-out: EC50-HSV2-FBS) 177 nM.

On to `CC1c2ccc(-c3ccccn3)cc2CC1C(=O)N1CCc2ccc(S(N)(=O)=O)cc21` (stereo not shown) [Example 92], for which the EC50 reads like this: under setting [1], 238 nM; (read-out: EC50-HSV2-FBS) 28 nM.

In the case of `C[C@@H]1c2ccc(-c3ccccn3)cc2C[C@H]1C(=O)N1CCc2ccc(S(N)(=O)=O)cc21` [Example 93, 1-((1S,2R)-1-methyl-5-(pyridin-2-yl)-2,3-dihydro-1H-indene-2-carbonyl)indoline-6-sulfonamide], the EC50 runs as follows: under setting [1], not below 25000 nM; (read-out: EC50-HSV2-FBS) 1850 nM.

As for `CC1c2cc(-c3ccccn3)ccc2CC1C(=O)N1CCc2ccc(S(N)(=O)=O)cc21` (stereo not shown) [Example 95, 1-(1-methyl-6-(pyridin-2-yl)-2,3-dihydro-1H-indene-2-carbonyl) indoline-6-sulfonamide], the EC50 is, setting by setting: under setting [1], not below 25000 nM; (read-out: EC50-HSV2-FBS) 2850 nM.

`C[C@@H]1c2ccc(-c3ccccn3)cc2C[C@H]1C(=O)N1CCc2cc(F)c(S(N)(=O)=O)cc21` [Example 98, 5-fluoro-1-((1S,2R)-1-methyl-5-(pyridin-2-yl)-2,3-dihydro-1H-indene-2-carbonyl)indoline-6-sulfonamide]: the EC50 is 6650 nM under setting [1] and 1360 nM (read-out: EC50-HSV2-FBS).

For `CC1CN(C(=O)[C@@H]2Cc3cc(-c4ccccn4)ccc3[C@H]2C)c2cc(S(N)(=O)=O)ccc21` (stereo partly drawn) [Example 101, 3-methyl-1-((1S,2R)-1-methyl-5-(pyridin-2-yl)-2,3-dihydro-1H-indene-2-carbonyl)indoline-6-sulfonamide], for the setting “read-out: EC50-HSV2-FBS”, the EC50 amounted to 6760 nM.

Turning to `CC1CN(C(=O)[C@H]2Cc3cc(-c4ccccn4)ccc3[C@@H]2C)c2cc(S(N)(=O)=O)ccc21` (stereo partly drawn) [Example 102, 3-methyl-1-((1R,2S)-1-methyl-5-(pyridin-2-yl)-2,3-dihydro-1H-indene-2-carbonyl) indoline-6-sulfonamide], the EC50 by setting is: under setting [1], 905 nM; (read-out: EC50-HSV2-FBS) 160 nM.

`C[C@H]1CN(C(=O)[C@@H]2Cc3ccc(-c4ccccn4)cc3C2)c2cc(S(N)(=O)=O)ccc21` [Example 107, (R)-3-methyl-1-((R)-5-(pyridin-2-yl)-2,3-dihydro-1H-indene-2-carbonyl)indoline-6-sulfonamide]: the EC50 runs as follows: under setting [1], not below 25000 nM; (read-out: EC50-HSV2-FBS) 95 nM.

On to `C[C@@H]1CN(C(=O)[C@@H]2Cc3ccc(-c4ccccn4)cc3C2)c2cc(S(N)(=O)=O)ccc21` [Example 108, (S)-3-methyl-1-((R)-5-(pyridin-2-yl)-2,3-dihydro-1H-indene-2-carbonyl)indoline-6-sulfonamide], for which the EC50 (read-out: EC50-HSV2-FBS) was found to be 285 nM.

Turning to `CC1(C)CN(C(=O)C2Cc3ccc(-c4ccccn4)cc3C2)c2cc(S(N)(=O)=O)ccc21` (stereo not shown) [Example 109], the EC50 (read-out: EC50-HSV2-FBS) is 390 nM.

On to `NS(=O)(=O)c1cc2c(cc1Br)CCN2C(=O)C1Cc2ccc(-c3ccccn3)cc2C1` (stereo not shown) [Example 110, 5-Bromo-1-(5-(pyridin-2-yl)-2,3-dihydro-1H-indene-2-carbonyl)indoline-6-sulfonamide], for which the EC50 reads like this: under setting [1], not below 25000 nM; (read-out: EC50-HSV2-FBS) 26 nM.

`COc1cc2c(cc1S(N)(=O)=O)N(C(=O)C1Cc3ccc(-c4ccccn4)cc3C1)CC2` (stereo not shown) [Example 111, 5-Methoxy-1-[5-(2-pyridyl)indane-2-carbonyl]indoline-6-sulfonamide]: the EC50 reads like this: under setting [1], not below 25000 nM; (read-out: EC50-HSV2-FBS) 1740 nM.

As to `CC[C@H]1Cc2cc(F)c(S(N)(=O)=O)cc2N1C(=O)[C@@H]1Cc2ccc(-c3ccccn3)cc2C1` [Example 114], the EC50 is, setting by setting: under setting [1], 926 nM; (read-out: EC50-HSV2-FBS) 128 nM.

`NS(=O)(=O)c1ccc2c(c1)N(C(=O)C1Cc3ccc(-c4ccccn4)cc3O1)CC2` (stereo not shown) [Example 115, 1-(6-(pyridin-2-yl)-2,3-dihydrobenzofuran-2-carbonyl)indoline-6-sulfonamide]: the EC50 by setting is: under setting [1], 1640 nM; (read-out: EC50-HSV2-FBS) 99 nM.

`NS(=O)(=O)c1ccc2c(c1)N(C(=O)[C@@H]1Cc3ccc(-c4ncccn4)cc3C1)CC2` [Example 133, (R)-1-(5-(pyrimidin-2-yl)-2,3-dihydro-1H-indene-2-carbonyl)indoline-6-sulfonamide]: the EC50 runs as follows: under setting [1], 6130 nM; (read-out: EC50-HSV2-FBS) 102 nM.
